The text below walks through data of patent US10214507B2, “Carbazole-containing amides, carbamates, and ureas as cryptochrome modulators” (Reset Therapeutics, Inc., priority 2014, dated 2019).

The experiment deals with stable U20S reporter cells harboring Per2-dLuc. The experiment can be described thus: Per2 assay for evaluating the potency of test compounds (circadian luciferase reporter). It is filed as cell-based. To be noted: amplitude of Per2-dLuc luminescence vs log concentration. How it is done: Compounds were screened by using a high-throughput circadian assay system as previously described in Zhang, E. E. et al. Cell, 2009, 139, 199-210. In brief, stable U20S reporter cells harboring Per2-dLuc were plated at a density of 30,000 cells/well in Corning 96-well, solid white, flat bottom, TC-treated microplates (Corning®), and incubated for 48 hours at 37° C. in the presence of 5% CO2 in a medium of Dulbecco's Modified Eagle Medium (DMEM) supplemented with 10% fetal bovine serum (FBS) and penicillin (100 units/mL)-streptomycin (100 μg/mL). […] DMSO stocks are then serially diluted in DMSO, typically diluting 3-fold for each dilution step. Following the 48 h period, cell culture medium is removed from plated cells and cells are synchronized with 200 μL/well of complete cell culture medium (described above), supplemented with 5 μM forskolin (Tocris®) and 1 mM beetle luciferin (Promega®). Immediately following synchronization, 1 μL of compound dilution is added to each well. Plates are sealed, shaken briefly, and gene expression was monitored by measuring luminescence (Tecan® Infinite M200 or Tecan® Infinite M200 Pro) continuously for a minimum of 3 days at 35° C. Raw luminescence data (counts) are first analyzed using Multicycle™ software (Actimetrics, Inc.) to determine the amplitude (amp), period, and phase (phz) for each compound concentration. The period length for control wells (i.e. no compound, DMSO only) should be 26-30 h. Amp data are then plotted against the logarithm compound concentration (M) and analyzed by nonlinear regression analysis to determine the EC50.
In general terms: In a reporter assay the amount or activity of a reporter protein is the signal.
A word on the EC50: it is the concentration giving half of the maximal effect. As for `O=C1C(c2ccccc2)CCN1CC(O)Cn1c2ccc(F)cc2c2cc(F)ccc21` (centres unmarked) [Compound 53, 1-(3-(3,6-difluoro-9H-carbazol-9-yl)-2-hydroxypropyl)-3-phenylpyrrolidin-2-one], it took 1340 nM to reach a half-maximal effect (EC50).
Compound `C[C@H]1CCC(=O)N(C[C@H](O)Cn2c3ccc(F)cc3c3cc(F)ccc32)C1` [Compound 130, (S)-1-((R)-3-(3,6-difluoro-9H-carbazol-9-yl)-2-hydroxypropyl)-5-methylpiperidin-2-one] registered an EC50 of 895 nM.
In the case of `CC1CC(=O)N(CC(O)Cn2c3ccc(F)cc3c3cc(F)ccc32)C1` (centres unmarked) [Compound 43, 1-(3-(3,6-difluoro-9H-carbazol-9-yl)-2-hydroxypropyl)-4-methylpyrrolidin-2-one] it was 1030 nM; in that of `CC(O)(CN1CCCC(C2CCC2)C1=O)Cn1c2ccc(F)cc2c2cc(F)ccc21` (centres unmarked) [Compound 52, 3-cyclobutyl-1-(3-(3,6-difluoro-9H-carbazol-9-yl)-2-hydroxy-2-methylpropyl)piperidin-2-one], 1360 nM; in that of `O=C1N(CC(O)Cn2c3ccc(F)cc3c3cc(F)ccc32)CCCN1C1CC1` (centres unmarked) [Compound 83, 1-cyclopropyl-3-(3-(3,6-difluoro-9H-carbazol-9-yl)-2-hydroxypropyl)tetrahydropyrimidin-2(1H)-one], 147 nM.
In the case of `C[C@H]1CCC(=O)N(C[C@H](O)Cn2c3ccccc3c3ccccc32)C1` [Compound 129, (S)-1-((R)-3-(9H-carbazol-9-yl)-2-hydroxypropyl)-5-methylpiperidin-2-one] it was 748 nM; in that of `CC1CCCN(CC(C)(O)Cn2c3ccc(F)cc3c3cc(F)ccc32)C1=O` (centres unmarked) [Compound 28, 1-(3-(3,6-difluoro-9H-carbazol-9-yl)-2-hydroxy-2-methylpropyl)-3-methylpiperidin-2-one], 824 nM; in that of `CC1CCCC(=O)N1CC(C)(O)Cn1c2ccc(F)cc2c2cc(F)ccc21` (centres unmarked) [Compound 40, 1-(3-(3,6-difluoro-9H-carbazol-9-yl)-2-hydroxy-2-methylpropyl)-6-methylpiperidin-2-one], 484 nM.
`O=C1[C@@H]2CC[C@@H](C2)N1C[C@H](O)Cn1c2ccc(F)cc2c2cc(F)ccc21` [Compound 104, (1S,4R)-2-((R)-3-(3,6-difluoro-9H-carbazol-9-yl)-2-hydroxypropyl)-2-azabicyclo[2.2.1]heptan-3-one] displayed an EC50 of 115 nM.
In the case of `CN1CCCN(CC(O)Cn2c3ccc(F)cc3c3cc(F)ccc32)C1=O` (centres unmarked) [Compound 6, 1-(3-(3,6-difluoro-9H-carbazol-9-yl)-2-hydroxypropyl)-3-methyltetrahydropyrimidin-2(1H)-one] it was 719 nM; in that of `CC1CN(C)C(=O)N(CC(O)Cn2c3ccc(F)cc3c3cc(F)ccc32)C1` (centres unmarked) [Compound 94, 1-(3-(3,6-difluoro-9H-carbazol-9-yl)-2-hydroxypropyl)-3,5-dimethyltetrahydropyrimidin-2(1H)-one], 833 nM.
In the case of `CCC1CCC(=O)N1CC(C)(O)Cn1c2ccc(F)cc2c2cc(F)ccc21` (centres unmarked) [Compound 33, 1-(3-(3,6-difluoro-9H-carbazol-9-yl)-2-hydroxy-2-methylpropyl)-5-ethylpyrrolidin-2-one] it was 625 nM.
Regarding `C[C@@H]1CCC(=O)N1C[C@@H](O)Cn1c2ccccc2c2ccccc21` [Compound 113, (R)-1-((S)-3-(9H-carbazol-9-yl)-2-hydroxypropyl)-5-methylpyrrolidin-2-one], the EC50 came out at 948 nM.
With `C[C@H]1CCC(=O)N1C[C@H](O)Cn1c2ccccc2c2ccccc21` [Compound 112, (S)-1-((R)-3-(9H-carbazol-9-yl)-2-hydroxypropyl)-5-methylpyrrolidin-2-one], the EC50 was determined as 470 nM.
In the case of `CC1CCN(CC(C)(O)Cn2c3ccc(F)cc3c3cc(F)ccc32)C1=O` (centres unmarked) [Compound 30, 1-(3-(3,6-difluoro-9H-carbazol-9-yl)-2-hydroxy-2-methylpropyl)-3-methylpyrrolidin-2-one] it was 895 nM; in that of `O=C1CCCCN1CC(O)Cn1c2ccccc2c2ccccc21` (centres unmarked) [Compound 1, 1-(3-(9H-carbazol-9-yl)-2-hydroxypropyl)piperidin-2-one], 171 nM; in that of `C[C@](O)(CN1CC[C@@H](F)C1=O)Cn1c2ccccc2c2ccccc21` [Compound 127, (R)-1-((R)-3-(9H-carbazol-9-yl)-2-hydroxy-2-methylpropyl)-3-fluoropyrrolidin-2-one], 535 nM.
`CC(C)C1CC(=O)N(CC(O)Cn2c3ccc(F)cc3c3cc(F)ccc32)C1` (centres unmarked) [Compound 41, 1-(3-(3,6-difluoro-9H-carbazol-9-yl)-2-hydroxypropyl)-4-isopropylpyrrolidin-2-one] had an EC50 of 373 nM.
As to `O=C1C(F)CCCN1CC(O)Cn1c2ccc(F)cc2c2cc(F)ccc21` (centres unmarked) [Compound 11, 1-(3-(3,6-difluoro-9H-carbazol-9-yl)-2-hydroxypropyl)-3-fluoropiperidin-2-one], the midpoint of the response, the EC50, lay at 120 nM.
In the case of `O=C1N(CC(O)Cn2c3ccc(F)cc3c3cc(F)ccc32)CCN1c1ccccc1` (centres unmarked) [Compound 89, 1-(3-(3,6-difluoro-9H-carbazol-9-yl)-2-hydroxypropyl)-3-phenylimidazolidin-2-one] it was 438 nM.
In the case of `O=C1N(CC(O)Cn2c3ccc(F)cc3c3cc(F)ccc32)CCCC1(F)F` (centres unmarked) [Compound 13, 1-(3-(3,6-difluoro-9H-carbazol-9-yl)-2-hydroxypropyl)-3,3-difluoropiperidin-2-one] it was 288 nM.
In the case of `CC(O)(CN1CCCCC1=O)Cn1c2ccc(F)cc2c2cc(F)ccc21` (centres unmarked) [Compound 5, 1-(3-(3,6-difluoro-9H-carbazol-9-yl)-2-hydroxy-2-methylpropyl)piperidin-2-one] it was 536 nM; in that of `O=C1N(CC(O)Cn2c3ccc(F)cc3c3cc(F)ccc32)CCCN1C1CCC1` (centres unmarked) [Compound 78, 1-cyclobutyl-3-(3-(3,6-difluoro-9H-carbazol-9-yl)-2-hydroxypropyl)tetrahydropyrimidin-2(1H)-one], 440 nM.
`CC(O)(CN1CCCN(c2ccccc2)C1=O)Cn1c2ccc(F)cc2c2cc(F)ccc21` (centres unmarked) [Compound 79, 1-(3-(3,6-difluoro-9H-carbazol-9-yl)-2-hydroxy-2-methylpropyl)-3-phenyltetrahydropyrimidin-2(1H)-one] came in with an EC50 of 923 nM.
In the case of `O=C1N(CC(O)Cn2c3ccccc3c3ccccc32)CCN1C1CCC1` (centres unmarked) [Compound 96, 1-(3-(9H-carbazol-9-yl)-2-hydroxypropyl)-3-cyclobutylimidazolidin-2-one] it was 493 nM; in that of `CC1CCN(CC(O)Cn2c3ccccc3c3ccccc32)C(=O)C1` (centres unmarked) [Compound 61, 2-(3-(9H-carbazol-9-yl)-2-hydroxypropyl)-4-methylpiperidin-2-one], 710 nM; in that of `CCN1CCN(CC(O)Cn2c3ccc(F)cc3c3cc(F)ccc32)C1=O` (centres unmarked) [Compound 73, 1-(3-(3,6-difluoro-9H-carbazol-9-yl)-2-hydroxypropyl)-3-ethylimidazolidin-2-one], 1110 nM.
In the case of `O=C1C(c2ccccc2)CCCN1CC(O)Cn1c2ccc(F)cc2c2cc(F)ccc21` (centres unmarked) [Compound 19, 1-(3-(3,6-difluoro-9H-carbazol-9-yl)-2-hydroxypropyl)-3-phenylpiperidin-2-one] it was 547 nM.
In the case of `C[C@@H]1CCC(=O)N1C[C@H](O)Cn1c2ccccc2c2ccccc21` [Compound 111, (R)-1-((R)-3-(9H-carbazol-9-yl)-2-hydroxypropyl)-5-methylpyrrolidin-2-one] it was 95 nM.
